From PubChem BioAssay AID2060896 (Molecular Pharmacology Branch, DTP, NCI, 2025)

Tested on: 941728-121-R-J1-PDC complex spheroid viability
Test: Anticancer human tumor 941728-121-R-J1-PDC patient-derived lung adenocarcinoma cell line growth inhibition [RAS]
Conditions: for IC50: curve of first compound; for viability, T/C: stronger effect = lower value
Method in brief: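 Multi-cell-type spheroids: tumor cells plus HUVEC endothelial cells and mesenchymal stem cells. RAS-pathway inhibitors were combined with targeted agents, each dosed in half-log steps down from clinical Cmax, or from 10 microM when Cmax was unknown.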

[1] = second compound 0.00316 µM, first compound 0.0316 µM
[2] = second compound 0.00316 µM, first compound 0.1 µM
[3] = second compound 0.00316 µM, first compound 0.316 µM
[4] = second compound 0.00316 µM, first compound 1 µM
[5] = second compound 0.00316 µM, first compound 3.16 µM
[6] = second compound 0.00316 µM, first compound 10 µM
[7] = second compound 0.01 µM, first compound 0.0316 µM
[8] = second compound 0.01 µM, first compound 0.1 µM
[9] = second compound 0.01 µM, first compound 0.316 µM
[10] = second compound 0.01 µM, first compound 1 µM
[11] = second compound 0.01 µM, first compound 3.16 µM
[12] = second compound 0.01 µM, first compound 10 µM
[13] = second compound 0.0316 µM, first compound 0.0316 µM
[14] = second compound 0.0316 µM, first compound 0.1 µM
[15] = second compound 0.0316 µM, first compound 0.316 µM
[16] = second compound 0.0316 µM, first compound 1 µM
[17] = second compound 0.0316 µM, first compound 3.16 µM
[18] = second compound 0.0316 µM, first compound 10 µM
[19] = second compound 0.1 µM, first compound 0.0316 µM
[20] = second compound 0.1 µM, first compound 0.1 µM
[21] = second compound 0.1 µM, first compound 0.316 µM
[22] = second compound 0.1 µM, first compound 1 µM
[23] = second compound 0.1 µM, first compound 3.16 µM
[24] = second compound 0.1 µM, first compound 10 µM
[25] = second compound 0.316 µM, first compound 0.0316 µM
[26] = second compound 0.316 µM, first compound 0.1 µM
[27] = second compound 0.316 µM, first compound 0.316 µM
[28] = second compound 0.316 µM, first compound 1 µM
[29] = second compound 0.316 µM, first compound 3.16 µM
[30] = second compound 0.316 µM, first compound 10 µM
[31] = second compound 1 µM, first compound 0.0316 µM
[32] = second compound 1 µM, first compound 0.1 µM
[33] = second compound 1 µM, first compound 0.316 µM
[34] = second compound 1 µM, first compound 1 µM
[35] = second compound 1 µM, first compound 3.16 µM
[36] = second compound 1 µM, first compound 10 µM
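Also: spheroids exposed to compounds for 7 days before readout.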
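For viability, T/C in this document: 100% = DMSO vehicle control viability.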

Structure (SMILES): CC(C)NCC(C(=O)N1CCN(c2ncnc3c2C(C)CC3O)CC1)c1ccc(Cl)cc1 (stereo unspecified) + C=CC(=O)N1CCN(c2nc(OCC3CCCN3C)nc3c(F)c(-c4nc(N)cc(C)c4C(F)(F)F)c(Cl)cc23)C(C)C1
- IC50 (second compound 0.00316 µM): < 31.6 nM
- IC50 (second compound 0.01 µM): < 31.6 nM
- IC50 (second compound 0.0316 µM): < 31.6 nM
- IC50 (second compound 0.1 µM): < 31.6 nM
- IC50 (second compound 0.316 µM): < 31.6 nM
- IC50 (second compound 1 µM): < 31.6 nM
- viability, T/C [1]: 19.3%
- viability, T/C [2]: 17.8%
- viability, T/C [3]: 16.5%
- viability, T/C [4]: 22.4%
- viability, T/C [5]: 12.7%
- viability, T/C [6]: 8.85%
- viability, T/C [7]: 18%
- viability, T/C [8]: 21.5%
- viability, T/C [9]: 18.3%
- viability, T/C [10]: 14.3%
- viability, T/C [11]: 13.1%
- viability, T/C [12]: 7.71%
- viability, T/C [13]: 26.6%
- viability, T/C [14]: 17.3%
- viability, T/C [15]: 16.8%
- viability, T/C [16]: 14.7%
- viability, T/C [17]: 10.8%
- viability, T/C [18]: 11.1%
- viability, T/C [19]: 19.6%
- viability, T/C [20]: 17.1%
- viability, T/C [21]: 17.9%
- viability, T/C [22]: 15%
- viability, T/C [23]: 10.6%
- viability, T/C [24]: 6.28%
- viability, T/C [25]: 19.6%
- viability, T/C [26]: 16.8%
- viability, T/C [27]: 15.3%
- viability, T/C [28]: 13.8%
- viability, T/C [29]: 13.5%
- viability, T/C [30]: 8.85%
- viability, T/C [31]: 17.9%
- viability, T/C [32]: 18.7%
- viability, T/C [33]: 16.8%
- viability, T/C [34]: 12%
- viability, T/C [35]: 12.3%
- viability, T/C [36]: 8.38%

Structure (SMILES): CC(C)n1nc(-c2ccc3oc(N)nc3c2)c2c(N)ncnc21 + C=CC(=O)N1CCN(c2nc(OCC3CCCN3C)nc3c(F)c(-c4nc(N)cc(C)c4C(F)(F)F)c(Cl)cc23)C(C)C1
- IC50 (second compound 0.00316 µM): < 0.316 nM
- IC50 (second compound 0.01 µM): < 0.316 nM
- IC50 (second compound 0.0316 µM): < 0.316 nM
- IC50 (second compound 0.1 µM): < 0.316 nM
- IC50 (second compound 0.316 µM): < 0.316 nM
- IC50 (second compound 1 µM): < 0.316 nM
- viability, T/C (second compound 0.00316 µM, first compound 0.000316 µM): 19.5%
- viability, T/C (second compound 0.00316 µM, first compound 0.001 µM): 21.4%
- viability, T/C (second compound 0.00316 µM, first compound 0.00316 µM): 19.4%
- viability, T/C (second compound 0.00316 µM, first compound 0.01 µM): 14.4%
- viability, T/C [1]: 11.6%
- viability, T/C [2]: 9.02%
- viability, T/C (second compound 0.01 µM, first compound 0.000316 µM): 19.6%
- viability, T/C (second compound 0.01 µM, first compound 0.001 µM): 21.8%
- viability, T/C (second compound 0.01 µM, first compound 0.00316 µM): 17.9%
- viability, T/C (second compound 0.01 µM, first compound 0.01 µM): 14.4%
- viability, T/C [7]: 10.7%
- viability, T/C [8]: 6.76%
- viability, T/C (second compound 0.0316 µM, first compound 0.000316 µM): 22.7%
- viability, T/C (second compound 0.0316 µM, first compound 0.001 µM): 17.5%
- viability, T/C (second compound 0.0316 µM, first compound 0.00316 µM): 19.2%
- viability, T/C (second compound 0.0316 µM, first compound 0.01 µM): 14.4%
- viability, T/C [13]: 10.2%
- viability, T/C [14]: 7.17%
- viability, T/C (second compound 0.1 µM, first compound 0.000316 µM): 22.1%
- viability, T/C (second compound 0.1 µM, first compound 0.001 µM): 18.2%
- viability, T/C (second compound 0.1 µM, first compound 0.00316 µM): 19.4%
- viability, T/C (second compound 0.1 µM, first compound 0.01 µM): 11.9%
- viability, T/C [19]: 10.1%
- viability, T/C [20]: 7.39%
- viability, T/C (second compound 0.316 µM, first compound 0.000316 µM): 19.4%
- viability, T/C (second compound 0.316 µM, first compound 0.001 µM): 18%
- viability, T/C (second compound 0.316 µM, first compound 0.00316 µM): 17.8%
- viability, T/C (second compound 0.316 µM, first compound 0.01 µM): 14.7%
- viability, T/C [25]: 9.18%
- viability, T/C [26]: 8.16%
- viability, T/C (second compound 1 µM, first compound 0.000316 µM): 19.5%
- viability, T/C (second compound 1 µM, first compound 0.001 µM): 22.9%
- viability, T/C (second compound 1 µM, first compound 0.00316 µM): 16.6%
- viability, T/C (second compound 1 µM, first compound 0.01 µM): 13.4%
- viability, T/C [31]: 11.6%
- viability, T/C [32]: 8.02%

Structure (SMILES): CC(Nc1ccc2c(c1)OCCn1cc(N3C(=O)OCC3C(F)F)nc1-2)C(N)=O (stereo unspecified) + C=CC(=O)N1CCN(c2nc(OCC3CCCN3C)nc3c(F)c(-c4nc(N)cc(C)c4C(F)(F)F)c(Cl)cc23)C(C)C1
- IC50 (second compound 0.00316 µM): < 31.6 nM
- IC50 (second compound 0.01 µM): < 31.6 nM
- IC50 (second compound 0.0316 µM): < 31.6 nM
- IC50 (second compound 0.1 µM): < 31.6 nM
- IC50 (second compound 0.316 µM): < 31.6 nM
- IC50 (second compound 1 µM): < 31.6 nM
- viability, T/C [1]: 16.6%
- viability, T/C [2]: 15.2%
- viability, T/C [3]: 15.4%
- viability, T/C [4]: 15.4%
- viability, T/C [5]: 12.8%
- viability, T/C [6]: 12%
- viability, T/C [7]: 17.7%
- viability, T/C [8]: 14.9%
- viability, T/C [9]: 15.2%
- viability, T/C [10]: 12.9%
- viability, T/C [11]: 12.2%
- viability, T/C [12]: 10.5%
- viability, T/C [13]: 19.2%
- viability, T/C [14]: 14.6%
- viability, T/C [15]: 13.4%
- viability, T/C [16]: 12.9%
- viability, T/C [17]: 10.7%
- viability, T/C [18]: 10.8%
- viability, T/C [19]: 18.3%
- viability, T/C [20]: 15.3%
- viability, T/C [21]: 12.8%
- viability, T/C [22]: 13.8%
- viability, T/C [23]: 11.5%
- viability, T/C [24]: 10.8%
- viability, T/C [25]: 17.5%
- viability, T/C [26]: 15.3%
- viability, T/C [27]: 13.4%
- viability, T/C [28]: 15.1%
- viability, T/C [29]: 13.6%
- viability, T/C [30]: 11.6%
- viability, T/C [31]: 14.9%
- viability, T/C [32]: 15.7%
- viability, T/C [33]: 14.3%
- viability, T/C [34]: 13.4%
- viability, T/C [35]: 12.6%
- viability, T/C [36]: 11.8%
